In data set [1] the test system is Fusarium graminearum schw. As to the kind of experiment: microbe, parasite or virus in culture. The data set is classed as cell-based. To be noted: read-out: Antifungal MIC.
The next data set deals with Septoria nodorum Berk. Briefly: Antifungal MIC, twofold serial dilution in 96-well plates. The data set is classed as cell-based. To be noted: Parastagonospora nodorum; S. nodorum.
The test system of data set [2] is PC-3 cells. As to the kind of experiment: Plate clone formation assay. The data set is classed as cell-based, human. Particulars: 0.16, 0.32 and 0.64 μM; two weeks. On the procedure:
The cell clone colony formation was observed after two weeks of treatment. Cells were fixed with 4% formaldehyde for 30 min and washed with PBS buffer, then stained with crystal violet stain solution for 30 min. The dye solution was removed and washed the cells with PBS buffer again. Cell colonies were recorded and analyzed by the colony count analysis system (GelCount, Oxford Optronix, Oxford, UK). The experiment was repeated three times independently.

The subject of data set [3] is Escherichia coli ATCC 25922. Briefly: Antibacterial MIC, twofold serial dilution in 96-well plates. Format: cell-based. Particulars: ATCC25922, E. coli.
In data set [4] the test system is Fusarium oxysporum f.sp. niveum. Briefly: Antifungal MIC, twofold serial dilution in 96-well plates. The data set is classed as cell-based.
For data set [5], the system named is Staphylococcus aureus ATCC 25923. As to the kind of experiment: Antibacterial MIC, twofold serial dilution in 96-well plates. Format: cell-based. Particulars: S. aureus; for MIC: Staphylococcus aureus, ATCC25923.
The subject of data set [6] is HepG2, A549, Hela, WPMY-1, MC3T3-E1 cells. Briefly: Antiproliferative MTT assay, summary over other cells. To be noted: range over HepG2, A549, Hela, read-out: IC50 values against other cells. Format: cell-based. Here is the method: (§1) Cell viability was analyzed by 3-(4,5)-[…] (MTT) assay as previously described. In brief, cells were seeded in a 96-well plate at a density of 5 × 10^3 per well overnight and treated with compounds for demand time. OD570 values were detected using a Hybrid Multi-Mode Reader (Synergy H1, BioTek, Santa Clara, CA, USA). The experiment was independently repeated three times.
A general note: Tetrazolium assays rely on reduction of a dye to a coloured formazan, in cell work by metabolically active cells.

Data set [7] concerns Erysipelothrix rhusiopathiae WH13013. Briefly: Antibacterial MIC, twofold serial dilution in 96-well plates. The data set is classed as cell-based. To be noted: E. rhusiopathiae; for MIC: Erysipelothrix rhusiopathiae, WH13013.
Data set [8] relates to PC-3 cells. Briefly: Cell cycle distribution, flow cytometry. The data set is classed as cell-based, human. To be noted: 48 h. From the text: (§2) Then, cells were collected and stained with annexin V-FITC and PI solution, following the manufacturer’s manual (BMS500FI-300, Thermo Fisher Scientific, Waltham, MA, USA). Apoptotic rates and cell cycle distribution of PC-3 cells were examined and analyzed by flow cytometer (NovoCyte, Agilent, Santa Clara, CA, USA). Each experiment was repeated three times independently.
On the technique in general: In flow cytometry, cells or beads pass a laser one at a time.

The test system of another data set is Streptococcus suis SC19. Briefly: Antibacterial MIC, twofold serial dilution in 96-well plates. Format: cell-based. To be noted: S. suis; for MIC: Streptococcus suis, SC19.
The next data set has as its system Rhizoctonia solani. Briefly: Antifungal MIC, twofold serial dilution in 96-well plates. Particulars: R. solani. Format: cell-based.
A further data set has as its system A549 cells. As to the kind of experiment: Cytotoxicity / antiproliferative MTT assay. The data set is classed as cell-based. Particulars: Homo sapiens, read-out: Cytotoxic IC50. Here is the method:
as §1

The subject of another data set is WPMY-1 cells. Briefly: Cytotoxicity / antiproliferative MTT assay. Format: cell-based. Particulars: read-out: Cytotoxic IC50. Here is the method: as §1
Data set [9] in a line: Cytotoxicity / antiproliferative MTT assay. The data set is classed as cell-based. To be noted: human, WPMY-1 cells, read-out: Cytotoxic IC50. On the procedure: as §1
The next data set deals with HepG2 cells. Briefly: Cytotoxicity / antiproliferative MTT assay. Format: cell-based. Particulars: read-out: Cytotoxic IC50. Here is the method: as §1
In a further data set the test system is Hela cells. As to the kind of experiment: Cytotoxicity / antiproliferative MTT assay. Particulars: Homo sapiens, read-out: Cytotoxic IC50. Format: cell-based. Here is the method:
as §1

For a further data set, the system named is Botrytis cinerea. Briefly: Antifungal MIC, twofold serial dilution in 96-well plates. Format: cell-based. Particulars: B. cinerea.
Data set [10] relates to PC-3 cells. As to the kind of experiment: Apoptosis assay, annexin V-FITC/PI flow cytometry. Particulars: 48 h. Format: cell-based, human.
From the text: as §2

Data set [11] relates to Verticillium dahlia kieb. Briefly: Antifungal MIC, twofold serial dilution in 96-well plates. Format: cell-based. Particulars: V. dahlia.
A further data set has as its system 22Rv1 cells. As to the kind of experiment: Cytotoxicity / antiproliferative MTT assay. The data set is classed as cell-based, human. Particulars: read-out: Cytotoxic IC50. Here is the method:
as §1

A further data set addresses human CCR5 receptor. Also on record: method as in PMID 15217290. To be noted: read-out: IC50, inhibition of binding with human CCR5 receptor; cited from earlier work.
The subject of data set [12] is PC-3 cells. As to the kind of experiment: Cytotoxicity / antiproliferative MTT assay. The data set is classed as cell-based. To be noted: Homo sapiens, PC-3, PC-3 (androgen receptor negative); read-out: Cytotoxic IC50. On the procedure: as §1
For data set [13], the system named is Botrytis cinerea, Verticillium dahlia kieb., Fusarium graminearum schw., Fusarium oxysporum f.sp. niveum, Rhizoctonia solani, Septoria nodorum Berk. The data set is classed as cell-based. Particulars: range over B. cinerea, V. dahlia, R. solani, S. nodorum.
Where [14] appears, read: Homo sapiens, 22Rv1, 22Rv1 (androgen receptor positive).

Values after ≈ are worked out from the molar mass of the structure shown. Where two headings read alike, the source gives them in different places. Marks after values point to notes of the source that are not given here. Some results are limits rather than exact numbers.

Turning to `CC=C(C)C(OC(C)=O)C(C)C1=CC(=O)C2=C(OC3(C)CCC4OC(C(C)(C)O)CCC4(C)C3C2)C1=O` (stereo not drawn) [Compound 4, stemphone C], the MIC in [1] was over 100 µg/mL; with Septoria nodorum Berk., 50 µg/mL (≈ 97.2 µM); in [3], over 100 µg/mL; in [4], over 100 µg/mL; in data set [5], over 100 µg/mL; in data set [7], 1.56 µg/mL (≈ 3.03 µM). Further, the MIC was 6.25 µg/mL (≈ 12.1 µM) with Streptococcus suis SC19, over 100 µg/mL with Rhizoctonia solani, over 100 µg/mL against Botrytis cinerea and over 100 µg/mL in data set [11]. Besides, the “Formation of clonal colonies of PC-3 cells” value with PC-3 cells [2] is recorded as “significantly inhibited the formation of clonal colonies of PC-3 cells”. In addition, the IC50 (usually the concentration needed to halve the response being measured) in data set [6] is 3.63 to 11.7 µM; with A549 cells, 11.7 µM; in the data set on WPMY-1 cells, 5.53 µM; in [9], under 10 µM; in the data set on HepG2 cells (HepG2), 7.11 µM; with HepG2 cells (Homo sapiens, HepG2, HepG2) it was under 10 µM. For the same compound, the results for the IC50 in the data set on Hela cells, in the data set on 22Rv1 cells (22Rv1 (androgen receptor positive)) and in the data set on 22Rv1 cells (setting [14]) were 11.5 µM, 5.81 µM and under 10 µM, respectively. Further, in the data set with PC-3 cells [8] (PC-3, 10.0 μM), the “Freq S” value is listed as 59.14%. For the same compound, the “Q3-1 quadrant, cells” value in the data set on PC-3 cells [10] (PC-3, 2.5 μM) was found to be 3.29%; with PC-3 cells [10] (PC-3, 5.0 μM) it was 4.69%; with PC-3 cells [10] (PC-3, 10.0 μM) it was 14.56%. Further, the “Q3-2 quadrant (late apoptosis), cells” value was determined as 1.02% with PC-3 cells [10] (PC-3, 2.5 μM); 4.89% in the data set on PC-3 cells [10] (PC-3, 5.0 μM); 36.84% with PC-3 cells [10] (PC-3, 10.0 μM). Further, the “Q3-3 quadrant, cells” value with PC-3 cells [10] (PC-3, 2.5 μM) is 94.52%; in the data set with PC-3 cells [10] (PC-3, 5.0 μM) it was 83.56%; in the data set on PC-3 cells [10] (PC-3, 10.0 μM), 33.95%. In addition, the “Q3-4 quadrant (early apoptosis), cells” value in the data set with PC-3 cells [10] (PC-3, 2.5 μM) amounted to 1.17%; with PC-3 cells [10] (PC-3, 5.0 μM), 6.86%; in the data set with PC-3 cells [10] (PC-3, 10.0 μM) it was 14.64%.
With `CC(C)=CCC[C@H](C)[C@H]1CC[C@]2(C)C[C@H]3[C@H](C(=O)C[C@@]3(C)O)/C(C=O)=C\C[C@@H]12` [Ophiobolin C], on human CCR5 receptor, the IC50 is 40 µM.
In the case of Penicillin [reference compound], the “Antibacterial MIC” value in [5] was 6.25 ^b μg/mL; in data set [7], 6.25^b μg/mL; in data set [7] (listed as penicillin), 6.25 µg/mL; with Streptococcus suis SC19 it was 1.56 ^b μg/mL.
Take `C[C@@H]1C[C@@H]([C@H](O)CC2CC(=O)NC(=O)C2)C(=O)[C@@H](C)C1` [Cycloheximide, reference compound]: the MIC is 12.5 µg/mL (≈ 44.4 µM) in data set [1]; 12.5 µg/mL (≈ 44.4 µM) in the data set with Septoria nodorum Berk.; over 100 µg/mL in data set [4]; 100 µg/mL (≈ 355 µM) in the data set on Rhizoctonia solani; 12.5 µg/mL (≈ 44.4 µM) with Botrytis cinerea; 12.5 µg/mL (≈ 44.4 µM) in data set [11].
Turning to `CC(=O)O[C@@]12CO[C@@H]1C[C@H](O)[C@@]1(C)C(=O)[C@H](O)C3=C(C)[C@@H](OC(=O)[C@H](O)[C@@H](NC(=O)OC(C)(C)C)c4ccccc4)C[C@@](O)([C@@H](OC(=O)c4ccccc4)[C@H]21)C3(C)C` [Docetaxel, reference compound], the “Freq G2 (G2/M)” value in the data set with PC-3 cells [8] (PC-3, 1.0 μM) was 71.23%. Besides, the IC50 came to 29.9 µM in the data set on A549 cells; 0.12 µM in the data set on PC-3 cells [12]; 0.51 µM in [9]; 179 µM in the data set with HepG2 cells (Homo sapiens, HepG2, HepG2); 0.03 µM in the data set on 22Rv1 cells (setting [14]). Moreover, in the data set on PC-3 cells [10] (PC-3, 1.0 μM), the “Q3-1 quadrant, cells” value was determined as 5.87%. Moreover, the “Q3-2 quadrant (late apoptosis), cells” value in the data set on PC-3 cells [10] (PC-3, 1.0 μM) worked out at 1.68%. In the data set with PC-3 cells [10] (PC-3, 1.0 μM), the “Q3-3 quadrant, cells” value came out at 89.89%. Also, in the data set with PC-3 cells [10] (PC-3, 1.0 μM), the “Q3-4 quadrant (early apoptosis), cells” value is listed as 2.57%.
For the compound `O=C1NC(=O)C(Cl)=C1Cl` [Compound 3, 3,4-dichloro-1H-pyrrole-2,5-dione], the melting point (in general, the temperature, or range, at which the solid turns liquid) was in the range of 173 to 175 °C. Moreover, the MIC in data set [1] came to 50 µg/mL (≈ 301 µM). The same compound gave an MIC against Septoria nodorum Berk. of 25 µg/mL (≈ 151 µM). The MIC in [3] was over 100 µg/mL. Besides, the MIC in [4] was 50 µg/mL (≈ 301 µM). In [5], this compound yielded an MIC of 100 µg/mL (≈ 603 µM). This compound showed an MIC in data set [7] of over 100 µg/mL. Moreover, the MIC against Streptococcus suis SC19 was determined as 100 µg/mL (≈ 603 µM). The same compound had an MIC against Rhizoctonia solani of 50 µg/mL (≈ 301 µM). In the data set with PC-3 cells [12], the IC50 was 9.6 µM. For the same compound, the MIC against Botrytis cinerea came to 25 µg/mL (≈ 151 µM). Further, the “MIC values against six fungi” value in [13] was 25 to 50 µg/mL. The compound also registered an MIC in data set [11] of 25 µg/mL (≈ 151 µM). The IC50 in the data set with 22Rv1 cells (setting [14]) was found to be 8.35 µM.
In turn, `[H]/N=C(/N)N[C@H]1[C@H](O)[C@@H](O)[C@H](O[C@@H]2O[C@@H](C)[C@](O)(C=O)[C@H]2O[C@@H]2O[C@@H](CO)[C@H](O)[C@@H](O)[C@@H]2NC)[C@@H](N/C(N)=N\[H])[C@@H]1O` [Streptomycin, reference compound] displayed an MIC in data set [3] of 50 µg/mL (≈ 86 µM).

The record behind these values is publication PMC9866852, “New Chlorinated Metabolites and Antiproliferative Polyketone from the Mangrove Sediments-Derived Fungus Mollisia sp. SCSIO41409” (Marine Drugs, 2022).
